Laboratory results as given in PubChem BioAssay (NCI).
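GI50: concentration for 50% inhibition of growth. At the TGI there is no net growth.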

Tests used:
Test in all cases: NCI anticancer screen, dose series, 384-well format
MDA-MB-468 breast = system: MDA-MB-468 breast
IGROV1 ovarian = system: IGROV1 ovarian
HS 578T breast = system: HS 578T breast
U251 glioblastoma = system: U251 glioblastoma
T-47D breast = system: T-47D breast
ACHN renal = system: ACHN renal
HOP-92 NSCLC = system: HOP-92 NSCLC
DU-145 prostate = system: DU-145 prostate
A498 renal = system: A498 renal
BT-549 breast = system: BT-549 breast
HCT-116 colon = system: HCT-116 colon
CAKI-1 renal = system: CAKI-1 renal
TK-10 renal = system: TK-10 renal
HL-60(TB) leukemia = system: HL-60(TB) leukemia
EKVX NSCLC = system: EKVX NSCLC
MALME-3M melanoma = system: MALME-3M melanoma
RXF 393 renal = system: RXF 393 renal
SR leukemia = system: SR leukemia
OVCAR-3 ovarian = system: OVCAR-3 ovarian
COLO 205 colon = system: COLO 205 colon
SK-OV-3 ovarian = system: SK-OV-3 ovarian
KM12 colon = system: KM12 colon
OVCAR-5 ovarian = system: OVCAR-5 ovarian
HT29 colon = system: HT29 colon
OVCAR-4 ovarian = system: OVCAR-4 ovarian
RPMI-8226 leukemia = system: RPMI-8226 leukemia
UO-31 renal = system: UO-31 renal
SN12C renal = system: SN12C renal
SK-MEL-2 melanoma = system: SK-MEL-2 melanoma
NCI-H226 lung = system: NCI-H226 lung
A549 NSCLC = system: A549 NSCLC
SNB-75 CNS = system: SNB-75 CNS
MOLT-4 leukemia = system: MOLT-4 leukemia
UACC-62 melanoma = system: UACC-62 melanoma
K-562 leukemia = system: K-562 leukemia
OVCAR-8 ovarian = system: OVCAR-8 ovarian
786-0 renal = system: 786-0 renal
PC-3 prostate = system: PC-3 prostate
NCI-H460 NSCLC = system: NCI-H460 NSCLC
NCI-H322M lung = system: NCI-H322M lung
LOX IMVI melanoma = system: LOX IMVI melanoma
NCI-H522 lung = system: NCI-H522 lung
NCI/ADR-RES ovarian = system: NCI/ADR-RES ovarian
SF-295 CNS = system: SF-295 CNS
CCRF-CEM leukemia = system: CCRF-CEM leukemia
MDA-MB-435 melanoma = system: MDA-MB-435 melanoma
HOP-62 NSCLC = system: HOP-62 NSCLC
UACC-257 melanoma = system: UACC-257 melanoma
MCF7 breast = system: MCF7 breast
SK-MEL-28 melanoma = system: SK-MEL-28 melanoma
HCT-15 colon = system: HCT-15 colon
SK-MEL-5 melanoma = system: SK-MEL-5 melanoma
SF-268 CNS = system: SF-268 CNS
HCC-2998 colon = system: HCC-2998 colon
NCI-H23 lung = system: NCI-H23 lung
SNB-19 CNS = system: SNB-19 CNS
SW-620 colon = system: SW-620 colon
MDA-MB-231 breast = system: MDA-MB-231 breast
SF-539 CNS = system: SF-539 CNS
M14 melanoma = system: M14 melanoma

## NC[C@@](O)(c1ccc(Cl)cc1)c1ccc(-c2cn[nH]c2)cc1
MDA-MB-468 breast
  GI50: 849 nM
  TGI: 2110 nM
IGROV1 ovarian
  GI50: 323 nM
  TGI: 1270 nM
HS 578T breast
  GI50: 957 nM
  TGI: 2150 nM
U251 glioblastoma
  GI50: 1580 nM
  TGI: 2950 nM
T-47D breast
  GI50: 1300 nM
  TGI: 2590 nM
ACHN renal
  GI50: 1320 nM
  TGI: 2600 nM
HOP-92 NSCLC
  GI50: 1200 nM
  TGI: 2530 nM
DU-145 prostate
  GI50: 1470 nM
  TGI: 2810 nM
A498 renal
  GI50: 1320 nM
  TGI: 2610 nM
BT-549 breast
  GI50: 511 nM
  TGI: 1780 nM
HCT-116 colon
  GI50: 1650 nM
  TGI: 3080 nM
CAKI-1 renal
  GI50: 560 nM
  TGI: 1940 nM
TK-10 renal
  GI50: 904 nM
  TGI: 2110 nM
HL-60(TB) leukemia
  GI50: 944 nM
  TGI: 2160 nM
EKVX NSCLC
  GI50: 560 nM
  TGI: 1820 nM
MALME-3M melanoma
  GI50: 1650 nM
  TGI: 3020 nM
RXF 393 renal
  GI50: 999 nM
  TGI: 2180 nM
SR leukemia
  GI50: 369 nM
  TGI: 1380 nM
OVCAR-3 ovarian
  GI50: 1960 nM
  TGI: 3390 nM

## CC(C)Oc1ccc(C(=O)N[C@H](CNC(=O)CN(C)C)Cc2ccc(-c3cn4cccc([C@H](C)O)c4n3)cc2)cc1Cl
COLO 205 colon
  GI50: 21.4 nM
  TGI: 42.7 nM
SK-OV-3 ovarian
  GI50: < 16.1 nM
  TGI: 8720 nM
KM12 colon
  GI50: < 20.9 nM
  TGI: 13800 nM
OVCAR-5 ovarian
  GI50: < 20.7 nM
  TGI: 14400 nM
HT29 colon
  GI50: < 12.2 nM
  TGI: < 21.4 nM
OVCAR-4 ovarian
  GI50: < 20.9 nM
  TGI: 16100 nM
RPMI-8226 leukemia
  GI50: < 13.7 nM
  TGI: < 18.4 nM
MDA-MB-468 breast
  GI50: < 10 nM
  TGI: < 10 nM
UO-31 renal
  GI50: 49.2 nM
  TGI: 17000 nM
SN12C renal
  GI50: < 20 nM
  TGI: 14200 nM
SK-MEL-2 melanoma
  GI50: < 10 nM
  TGI: < 13 nM
NCI-H226 lung
  GI50: 343 nM
  TGI: 14500 nM
IGROV1 ovarian
  TGI: 20900 nM
A549 NSCLC
  GI50: < 20.7 nM
  TGI: 14500 nM
SNB-75 CNS
  GI50: 44.6 nM
  TGI: 16600 nM
MOLT-4 leukemia
  GI50: < 11.1 nM
  TGI: < 15.9 nM
UACC-62 melanoma
  GI50: < 17.7 nM
  TGI: 9180 nM
K-562 leukemia
  GI50: < 12.8 nM
  TGI: < 22.1 nM
OVCAR-8 ovarian
  GI50: < 19 nM
  TGI: 15900 nM
U251 glioblastoma
  GI50: < 17.5 nM
  TGI: 11500 nM
T-47D breast
  GI50: < 17.4 nM
  TGI: 12100 nM
786-0 renal
  GI50: < 17.8 nM
  TGI: 4560 nM
PC-3 prostate
  GI50: < 20.3 nM
  TGI: 12800 nM
NCI-H460 NSCLC
  GI50: < 14.7 nM
  TGI: < 21.4 nM
ACHN renal
  GI50: 53.7 nM
  TGI: 20100 nM
HOP-92 NSCLC
  GI50: 55 nM
  TGI: 12300 nM
NCI-H322M lung
  GI50: < 25.7 nM
  TGI: 16700 nM
LOX IMVI melanoma
  GI50: 37.9 nM
  TGI: 10300 nM
NCI-H522 lung
  GI50: < 10 nM
  TGI: < 10 nM
DU-145 prostate
  GI50: < 17.4 nM
  TGI: < 28.9 nM
NCI/ADR-RES ovarian
  GI50: 1410 nM
  TGI: 4670 nM
A498 renal
  GI50: < 22.9 nM
  TGI: 11400 nM
SF-295 CNS
  GI50: < 10 nM
  TGI: < 10 nM
CCRF-CEM leukemia
  GI50: 17.2 nM
  TGI: 33.5 nM
BT-549 breast
  GI50: < 21.2 nM
MDA-MB-435 melanoma
  GI50: < 14.2 nM
  TGI: < 22.8 nM
HCT-116 colon
  GI50: < 17.2 nM
  TGI: 12200 nM
HOP-62 NSCLC
  GI50: < 18.1 nM
  TGI: 14700 nM
CAKI-1 renal
  GI50: < 28.3 nM
  TGI: 15400 nM
UACC-257 melanoma
  GI50: < 21.9 nM
  TGI: 1820 nM
MCF7 breast
  GI50: < 23 nM
  TGI: 13500 nM
SK-MEL-28 melanoma
  GI50: 270 nM
  TGI: 8220 nM
TK-10 renal
  GI50: < 26.7 nM
  TGI: 14700 nM
HL-60(TB) leukemia
  GI50: < 14.2 nM
  TGI: < 18.9 nM
HCT-15 colon
  GI50: 84.7 nM
  TGI: 15800 nM
EKVX NSCLC
  GI50: 27.9 nM
  TGI: 240 nM
MALME-3M melanoma
  GI50: 182 nM
  TGI: 3160 nM
SK-MEL-5 melanoma
  GI50: < 21.1 nM
RXF 393 renal
  GI50: < 18.5 nM
SF-268 CNS
  GI50: < 17.9 nM
  TGI: 13200 nM
HCC-2998 colon
  GI50: < 17.9 nM
NCI-H23 lung
  GI50: < 14.5 nM
  TGI: < 21.8 nM
SR leukemia
  GI50: < 12.1 nM
  TGI: < 17.1 nM
SNB-19 CNS
  GI50: < 17.4 nM
  TGI: 14800 nM
SW-620 colon
  GI50: < 19.8 nM
  TGI: 13400 nM
MDA-MB-231 breast
  GI50: < 19.6 nM
  TGI: 4270 nM
SF-539 CNS
  GI50: < 15.9 nM
  TGI: < 34 nM
OVCAR-3 ovarian
  GI50: < 10 nM
  TGI: < 10 nM
M14 melanoma
  GI50: < 16 nM
  TGI: 269 nM
